Experimental data from US20050176584A1, “Mehtod for high throughput screening of plant growth regulator” (Korea Research Institute of Bioscience and Biotechnology, priority 2002, published 2005).

Legend:
[1] = tested on: Oryza sativa L. cv (Taebaegbyeo) heterotrophic cells; assay: TTC analysis of growth inhibition, rice heterotrophic cells; format: cell-based; details: for growth inhibiting activity to non-photomixotrophic (heterotrophic) cells, in words: 10 ppm; for growth inhibition activities (IC50) to Oryza sativa L. cv (Taebaegbyeo) heterotrophic cells: TTC analysis
Experimental: (§1) Other culture conditions were same as those for Marchantia polymorpha L. photomixotrophic cell culture. The investigation procedure of cell viability in a 96 microwell plate of the present invention is precisely explained as follows. 1) Treating 150 μl of TTC solution into each well wherein cells are being cultured. 2) Five hours after treating TTC, removing the solution in wells with a 8-channel multi-pipette. 3) Adding 150 μl of 95% ethanol to the remaining cells of each well, and then reacting thereof at 60° C. for 1 hour. 4) After reaction finished, transferring the reacting solution into a new 96 well plate. 5) Measuring the optical density of the well plate at 490 nm wave length with a high throughput screening (HTS) reader. The explained method of the present invention is called high throughput screening. […] Oryza sativa L. cv (Taebaegbyeo) heterotrophic cells used in this experiment were developed from premature embryo (Korean J Plant Tissue Culture, 18: 209-214, 1991).

[2] = tested on: Nicotiana tabacum cv. (BY4) photomixotrophic cells; assay: TTC analysis of growth inhibition, tobacco photomixotrophic cells; format: cell-based
Experimental: as §1, with “As Nicotiana tabacum cv. (BY4) photomixotrophic cells, the cells developed as NaCl resistance cells by Cha et al. (Cha et al., Korean J Bot, -36: 113-120, 1993) were used. For the” for “Other”, “of the above cells, MS minimal medium where 0.7 mg/l of 2,4-D and 0.03 mg/l of kinetin” for “conditions”, “added was used. 2 g of Nicotiana tabacum cv. […] The cells were sub-cultured at intervals of 14 days.” for “same as those for Marchantia polymorpha L. photomixotrophic cell culture.”

[3] = tested on: Marchantia polymorpha L. photomixotrophic cells; assay: TTC high throughput screening of cell growth in microwell plate; format: cell-based; details: for growth inhibition activities (IC50) to Marchantia polymorpha L. photomixotrophic cells: TTC analysis; for effect of natural compounds on cell growth, in words: 1 ppm
Lemna paucicostata = Lemna paucicostata growth inhibition in 24 well plate; details: for inhibition at 31 ppm: Lemna aequinoctialis, 120 h, read-out: Lemna paucicostata (% activity)
[4] = Marchantia polymorpha, natural compounds, final concentration 1 ppm, + inhibiting, − promoting

| SMILES | growth inhibition activities (IC50) to Oryza sativa L. cv (Taebaegbyeo) heterotrophic cells [1] | growth inhibition activities (IC50) to Nicotiana tabacum cv. (BY4) photomixotrophic cells [2] | growth inhibition activities (IC50) to Marchantia polymorpha L. photomixotrophic cells ([3]; 96 well plate) | inhibition at 31 ppm (Lemna paucicostata) | inhibition at 1 ppm [3, 4] | further results |
| --- | --- | --- | --- | --- | --- | --- |
| COc1cc(Oc2ccc(Cl)cc2Cl)ccc1[N+](=O)[O-] [Chloromethoxynil] | >10 ppm | 0.193 ppm | 0.076 ppm |  |  | growth inhibiting activity to non-photomixotrophic (heterotrophic) cells, in words [1]: low growth inhibiting activity or almost none |
| O=C(O)c1cc(O)c(O)c(O)c1 [Gallic acid] |  |  |  | 0% | 8% |  |
| CCOC(=O)c1ccc(O)c(O)c1 [Protocatechuic acid ethyl ester] |  |  |  | 70% | 22% |  |
| COCC(=O)OC(c1ncccc1S(=O)(=O)NC(=O)Nc1nc(OC)cc(OC)n1)C(C)F (stereo not shown) [LGC-42153] | 1.793 ppm | 0.0022 ppm | 0.0011 ppm |  |  |  |
| CCOC(=O)c1cnn(C)c1S(=O)(=O)NC(=O)Nc1nc(OC)cc(OC)n1 [Prazolsulfuron-ethyl] | 0.066 ppm | 0.001 ppm | 0.0012 ppm |  |  |  |
| COc1cc2ccc(=O)oc2cc1O [Scopoletin] |  |  |  | 0% | 16% |  |
| O=c1ccc2ccccc2o1 [Coumarin] |  |  |  | 80% | 33% |  |
| COc1cc(OC)nc(Oc2cccc(Oc3nc(OC)cc(OC)n3)c2C(=O)ON=C(c2ccccc2)c2ccccc2)n1 [Pyribenzoxim] | 7.83 ppm | 0.0026 ppm | 0.0092 ppm |  |  |  |
| COc1cc(C(=O)O)ccc1O [Vanillic acid] |  |  |  | 10% | 10% |  |
| Oc1ccc(O)cc1 [Hydroquinone] |  |  |  | 0% | 15% |  |
| O=C(O)/C=C/c1ccc(O)c(O)c1 [Caffeic acid] |  |  |  | 30% | 21% |  |
| CC(C)Oc1cc(-n2nc(C(C)(C)C)oc2=O)c(Cl)cc1Cl [Oxadiazone] | 6.88 ppm | 0.39 ppm | 0.03 ppm |  |  |  |
| O=C(O)/C=C/c1ccccc1O [o-Coumaric acid] |  |  |  | 30% | 32% |  |
| O=C(O)/C=C/c1ccc(O)cc1 [p-Coumaric acid] |  |  |  | 30% | 17% |  |
| O=c1oc2ccccc2c(O)c1Cc1c(O)c2ccccc2oc1=O [Dicumarol] |  |  |  | 30% | -31% | effect of natural compounds on cell growth, in words [3]: growth promoting activity |
| O=C(Nc1ccc(F)cc1F)c1cccnc1Oc1cccc(C(F)(F)F)c1 [Diflufenican] | >10 ppm | 4.67 ppm | 0.031 ppm |  |  | growth inhibiting activity to non-photomixotrophic (heterotrophic) cells, in words [1]: low growth inhibiting activity or almost none |
| O=C1COc2ccccc21 [3-Coumaranone] |  |  |  | 0% | -18% | effect of natural compounds on cell growth, in words [3]: growth promoting activity |
| O=C(O)c1cc(O)ccc1O [Gentistic acid] |  |  |  |  |  | Lemna paucicostata (% activity) (Lemna paucicostata; final concentration 31 ppm, 5 days after treating): 0%; Marchantia polymorpha L. photomixotrophic cells (% activity) ([3]; natural compounds, final concentration 1 ppm, + inhibiting, − promoting): 9% |
| O=c1ccc2ccc(O)cc2o1 [Umbelliferone] |  |  |  | 40% | 6% |  |
| CSC(=O)c1c(C(F)F)nc(C(F)(F)F)c(C(=O)SC)c1CC(C)C [Dithiopyr] | 0.613 ppm | 0.141 ppm | 0.048 ppm |  |  |  |
| COc1cc(/C=C/C(=O)O)ccc1O [Ferulic acid] |  |  |  | 20% | -35% | effect of natural compounds on cell growth, in words [3]: growth promoting activity |
| CC(C)C1(C)N=C(c2ncccc2C(=O)O)NC1=O (stereo not shown) [Amazapyr] | 0.269 ppm | 0.018 ppm | 0.35 ppm |  |  |  |
| CCC(=O)Nc1ccc(Cl)c(Cl)c1 [Propanil] | 8.49 ppm | 5.83 ppm | 0.037 ppm |  |  |  |
| COc1cc(C(=O)O)cc(OC)c1O [Syringic acid] |  |  |  | 0% | 16% |  |
| CCOC(=O)[C@@H](C)Oc1ccc(Oc2nc3ccc(Cl)cc3o2)cc1 [Phenoxapro-P-ethyl] | 6.47 ppm | 4.58 ppm | 0.70 ppm |  |  |  |
| CCNc1nc(Cl)nc(NC(C)C)n1 [Atrazine] | >10 ppm | 0.18 ppm | 0.21 ppm |  |  | growth inhibiting activity to non-photomixotrophic (heterotrophic) cells, in words [1]: low growth inhibiting activity or almost none; intracellular formazan content ([3]; 12 well plate, different concentrations, 1 and 5 hours after TTC): decreased dose-dependently; content that can inhibit cell growth upto about 50% ([3]; 96 well plate, TTC 5 hours): 0.18 ppm; IC50 ([3]; Marchantia polymorpha, 96 well plate, TTC 5 hours, read-out: content that can inhibit cell growth upto about 50%): 680 nM |
| CON(C)C(=O)Nc1ccc(Cl)c(Cl)c1 [Linurone] | 7.07 ppm | >10 ppm | 0.244 ppm |  |  |  |
| CC(Oc1ccc2ccccc2c1)C(=O)Nc1ccccc1 (stereo not shown) [Naproanilide] | 6.69 ppm | 0.0019 ppm | 0.054 ppm |  |  |  |
| O=C(O)c1ccccc1 [Benzoic acid] |  |  |  | 10% |  |  |
